The values that follow come from ChEMBL document CHEMBL5113502, “Accommodation of ring C expanded deoxyvasicinone in the HDAC inhibitory pharmacophore culminates into a tractable anti-lung cancer agent and pH-responsive nanocarrier” (Eur J Med Chem, 2022).

The species named for assay [1] is Homo sapiens. Description: Selectivity index, ratio of IC50 for HDAC9 (unknown origin) to IC50 for HDAC 1 (unknown origin).
Assay [2] deals with A549. Description: Inhibition of colony formation in human A549 cells measured after 24 hrs. In kind it is functional, cell-based. The following applies: dose 0.1-1 µM, DDE = dose-dependent effect.
The next assay concerns the target Histone deacetylase 1 (Homo sapiens, UniProt Q13547). Nature of the assay: Inhibition of HDAC1 (unknown origin) by colorimetric method.
The species named for assay [3] is Homo sapiens. Nature of the assay: Selectivity index, ratio of IC50 for HDAC3 (unknown origin) to IC50 for HDAC 6 (unknown origin).
A further assay deals with HOP-62. Nature of the assay: Cytotoxicity against human HOP-62 cells assessed as cell viability after 48 hrs by MTT assay. The following applies: HOP-62, 48 h. In kind it is functional, cell-based.
For assay [4], the species on record is Homo sapiens. Nature of the assay: Selectivity index, ratio of IC50 for HDAC 2 (unknown origin) to IC50 for HDAC 1 (unknown origin).
For the next assay, the target named is T1, Histone deacetylase 7 (Homo sapiens, UniProt Q8WUI4).
T1 sequence (Q8WUI4 whole entry): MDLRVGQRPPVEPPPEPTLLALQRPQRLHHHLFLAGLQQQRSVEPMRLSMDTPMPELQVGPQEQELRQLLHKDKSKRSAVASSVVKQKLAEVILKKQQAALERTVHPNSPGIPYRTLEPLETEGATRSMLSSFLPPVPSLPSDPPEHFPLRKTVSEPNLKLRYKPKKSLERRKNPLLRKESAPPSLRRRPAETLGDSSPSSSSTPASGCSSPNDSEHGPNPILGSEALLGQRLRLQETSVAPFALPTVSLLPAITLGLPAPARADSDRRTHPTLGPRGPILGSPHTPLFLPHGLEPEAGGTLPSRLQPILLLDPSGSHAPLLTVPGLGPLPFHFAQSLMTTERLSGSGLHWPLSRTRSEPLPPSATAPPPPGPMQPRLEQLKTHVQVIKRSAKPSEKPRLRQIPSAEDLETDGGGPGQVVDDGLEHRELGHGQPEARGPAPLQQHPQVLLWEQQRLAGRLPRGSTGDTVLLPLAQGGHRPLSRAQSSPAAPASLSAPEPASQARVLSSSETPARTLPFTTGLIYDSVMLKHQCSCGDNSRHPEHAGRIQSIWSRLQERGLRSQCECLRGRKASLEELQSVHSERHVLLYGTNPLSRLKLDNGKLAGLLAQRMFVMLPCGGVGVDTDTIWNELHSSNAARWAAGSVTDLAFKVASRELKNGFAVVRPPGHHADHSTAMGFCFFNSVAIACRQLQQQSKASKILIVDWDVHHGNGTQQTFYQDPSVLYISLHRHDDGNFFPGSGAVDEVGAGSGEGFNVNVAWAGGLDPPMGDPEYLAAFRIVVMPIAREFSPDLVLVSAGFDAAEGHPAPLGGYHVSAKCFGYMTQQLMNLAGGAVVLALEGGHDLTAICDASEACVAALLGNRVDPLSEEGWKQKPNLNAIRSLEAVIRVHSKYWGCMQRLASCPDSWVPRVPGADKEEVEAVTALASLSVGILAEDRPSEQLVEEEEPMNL
Description: Inhibition of HDAC7 (unknown origin) by colorimetric method.

The species entered for assay [5] is Homo sapiens. Description: Selectivity index, ratio of IC50 for HDAC6 (unknown origin) to IC50 for HDAC 3 (unknown origin).
The next assay has as its target Histone deacetylase 5 (Homo sapiens, UniProt Q9UQL6). Nature of the assay: Inhibition of HDAC5 (unknown origin) by colorimetric method.
Assay [6] deals with A549. Description: Cytotoxicity against human A549 cells assessed as cell viability after 48 hrs by MTT assay. In kind it is functional, cell-based. The following applies: A549, 48 h. A general note: Tetrazolium dyes change colour on reduction, which living cells bring about.
For assay [7], the target named is T2, Protein deacetylase HDAC6 (Homo sapiens, UniProt Q9UBN7).
T2 sequence (Q9UBN7 whole entry): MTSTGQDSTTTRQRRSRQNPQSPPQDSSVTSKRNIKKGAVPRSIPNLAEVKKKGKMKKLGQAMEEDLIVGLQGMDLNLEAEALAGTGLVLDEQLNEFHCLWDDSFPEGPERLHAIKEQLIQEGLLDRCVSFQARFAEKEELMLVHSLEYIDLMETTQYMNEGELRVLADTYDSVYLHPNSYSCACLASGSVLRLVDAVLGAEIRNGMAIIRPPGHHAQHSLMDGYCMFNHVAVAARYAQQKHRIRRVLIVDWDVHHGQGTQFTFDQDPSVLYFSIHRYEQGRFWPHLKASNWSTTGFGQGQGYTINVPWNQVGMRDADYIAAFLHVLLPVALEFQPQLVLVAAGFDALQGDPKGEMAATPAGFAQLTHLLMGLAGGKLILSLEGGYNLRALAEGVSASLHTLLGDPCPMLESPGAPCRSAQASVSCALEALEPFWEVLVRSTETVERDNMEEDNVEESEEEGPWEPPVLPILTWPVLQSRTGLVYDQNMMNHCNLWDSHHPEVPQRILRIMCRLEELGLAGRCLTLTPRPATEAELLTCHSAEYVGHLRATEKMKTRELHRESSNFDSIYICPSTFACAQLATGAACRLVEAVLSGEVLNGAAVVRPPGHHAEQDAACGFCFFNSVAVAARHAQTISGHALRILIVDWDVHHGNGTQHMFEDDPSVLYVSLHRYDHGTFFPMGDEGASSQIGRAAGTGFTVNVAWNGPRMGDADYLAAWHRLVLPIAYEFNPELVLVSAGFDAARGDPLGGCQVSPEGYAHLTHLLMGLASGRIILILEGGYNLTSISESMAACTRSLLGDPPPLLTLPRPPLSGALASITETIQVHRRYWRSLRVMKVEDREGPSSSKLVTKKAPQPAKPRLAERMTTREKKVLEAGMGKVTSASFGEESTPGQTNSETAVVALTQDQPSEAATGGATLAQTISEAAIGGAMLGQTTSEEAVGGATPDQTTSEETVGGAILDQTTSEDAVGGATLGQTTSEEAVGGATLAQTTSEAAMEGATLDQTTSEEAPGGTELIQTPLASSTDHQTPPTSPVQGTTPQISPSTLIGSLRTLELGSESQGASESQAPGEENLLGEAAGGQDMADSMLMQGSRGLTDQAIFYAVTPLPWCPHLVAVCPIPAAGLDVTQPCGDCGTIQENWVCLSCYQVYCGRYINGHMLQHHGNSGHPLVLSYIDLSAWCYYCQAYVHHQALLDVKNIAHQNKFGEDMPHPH
Description: Inhibition of HDAC6 (unknown origin) by colorimetric method.

Assay [8] is filed under the species Homo sapiens. Nature of the assay: Selectivity index, ratio of IC50 for HDAC 2 (unknown origin) to IC50 for HDAC 3 (unknown origin).

Sequence of Histone deacetylase 5 (Q9UQL6 whole entry): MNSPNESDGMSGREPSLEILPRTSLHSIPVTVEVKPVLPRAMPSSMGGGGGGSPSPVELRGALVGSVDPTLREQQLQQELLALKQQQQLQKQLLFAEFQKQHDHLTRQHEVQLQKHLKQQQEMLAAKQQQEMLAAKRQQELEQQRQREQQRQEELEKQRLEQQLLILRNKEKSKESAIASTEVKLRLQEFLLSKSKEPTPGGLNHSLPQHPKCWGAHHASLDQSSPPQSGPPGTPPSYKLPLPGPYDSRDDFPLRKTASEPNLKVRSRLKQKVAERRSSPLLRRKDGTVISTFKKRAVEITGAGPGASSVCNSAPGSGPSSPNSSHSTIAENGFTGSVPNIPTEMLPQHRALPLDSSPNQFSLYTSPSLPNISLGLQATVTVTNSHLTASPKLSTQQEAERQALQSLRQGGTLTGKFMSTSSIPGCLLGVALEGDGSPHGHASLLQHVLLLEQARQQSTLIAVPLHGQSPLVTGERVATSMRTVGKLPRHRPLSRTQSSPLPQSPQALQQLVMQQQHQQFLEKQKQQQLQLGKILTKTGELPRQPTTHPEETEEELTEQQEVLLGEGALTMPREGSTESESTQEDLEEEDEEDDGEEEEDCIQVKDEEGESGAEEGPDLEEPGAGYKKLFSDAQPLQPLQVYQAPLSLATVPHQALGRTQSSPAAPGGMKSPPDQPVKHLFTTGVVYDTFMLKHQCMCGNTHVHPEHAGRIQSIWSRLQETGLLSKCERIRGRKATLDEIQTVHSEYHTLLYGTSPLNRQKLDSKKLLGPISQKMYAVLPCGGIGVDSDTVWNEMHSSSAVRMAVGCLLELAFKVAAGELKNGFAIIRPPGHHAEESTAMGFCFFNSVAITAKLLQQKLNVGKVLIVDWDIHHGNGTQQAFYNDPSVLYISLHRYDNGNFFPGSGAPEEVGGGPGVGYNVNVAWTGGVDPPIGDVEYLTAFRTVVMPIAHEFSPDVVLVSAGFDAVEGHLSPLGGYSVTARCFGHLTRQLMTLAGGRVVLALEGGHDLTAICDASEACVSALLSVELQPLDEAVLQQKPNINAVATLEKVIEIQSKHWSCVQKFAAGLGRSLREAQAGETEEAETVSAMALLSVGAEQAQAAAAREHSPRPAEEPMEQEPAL
Sequence of Histone deacetylase 1 (Q13547 whole entry): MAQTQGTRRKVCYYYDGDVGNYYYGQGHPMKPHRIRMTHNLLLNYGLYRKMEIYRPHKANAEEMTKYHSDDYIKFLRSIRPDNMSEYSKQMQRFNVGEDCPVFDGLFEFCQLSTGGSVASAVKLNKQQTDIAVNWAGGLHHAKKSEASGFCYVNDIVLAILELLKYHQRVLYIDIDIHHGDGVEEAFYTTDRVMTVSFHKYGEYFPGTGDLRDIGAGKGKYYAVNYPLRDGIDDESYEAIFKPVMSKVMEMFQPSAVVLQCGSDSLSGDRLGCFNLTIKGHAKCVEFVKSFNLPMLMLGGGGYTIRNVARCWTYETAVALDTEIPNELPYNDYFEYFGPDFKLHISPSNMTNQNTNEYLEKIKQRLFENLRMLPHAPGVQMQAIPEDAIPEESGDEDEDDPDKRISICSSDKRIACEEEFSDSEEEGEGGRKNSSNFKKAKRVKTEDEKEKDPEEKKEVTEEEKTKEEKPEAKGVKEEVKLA

As a reminder, the IC50 is the midpoint of a concentration-inhibition curve. Regarding `O=C(/C=C/c1ccc(CNc2ccc3nc4n(c(=O)c3c2)CCCCC4)cc1)NO`, the Ratio IC50 was determined as 86.6 in the assay filed under Homo sapiens [1]; 5.31 in the assay listed under Homo sapiens [3]; 25.2 in the assay listed under Homo sapiens [4]; 0.188 in the assay listed under Homo sapiens [5]; 18.4 in the assay listed under Homo sapiens [8]. In addition, the inhibition entry in the assay with A549 [2] was “Dde”. The IC50 against Histone deacetylase 1 was 49.9 nM; in the assay with HOP-62, 900 nM; against Histone deacetylase 7, 4080 nM; against Histone deacetylase 5 it was 617 nM; with A549 [6], 855 nM; in assay [7] it was 12.9 nM.
